We go through 34 sequences from article PMC11714206, “Massively Parallel Screening of Toll/Interleukin‐1 Receptor (TIR)‐Derived Peptides Reveals Multiple Toll‐Like Receptors (TLRs)‐Targeting Immunomodulatory Peptides” (Advanced Science, 2024).

In this test the target is T1, MyD88^TIR (Homo sapiens, UniProt Q99836).
T1 construct: MyD88 (residues 148–296); 6xHis; made in house; host or cells: E. coli BL21 (DE3)
Briefly: T‐Surf phage library (P8 and P3) selection against MyD88^TIR, four rounds, NGS read counts. The class given is binding. The conditions noted are these: for Population: P8_MyD88 pool: P8 T-Surf phage library, 4th round of selection against MyD88 TIR, share of NGS reads; for P8_MyD88 Rank (after) / P8_MyD88 Rank (before): P8 library; for P3_MyD88 Rank (after) / P3_MyD88 Rank (before): P3 library. The procedure:
T‐Surf libraries were screened against the immobilized TIR domains of two major human TLR adaptor proteins, MAL^TIR and MyD88^TIR, allowing cross‐species selection of TIR‐binding motifs with 190 946 TIR‐derived peptides in a single binding assay (Scheme 1). Enriched phage pools from the fourth round of selection were analyzed using NGS after barcoding the peptide‐coding regions of the phage pools.
Phage display screening was performed by coating two wells of a 96‐well plate (Maxisorp, Thermo Fisher Scientific) with 100 µL of 5 µg mL^−1 TIR domains overnight; then, the coated wells were blocked with 200 µL of blocking buffer (0.2% BSA in PBS) and set aside for 1 h at 4 °C with gentle shaking. Next, 100 µL of the phage library was added to the wells and incubated for 1 h at room temperature (RT; 20 – 22 °C) with gentle shaking. The plate was washed four times with PBS containing 0.5% Tween‐20; the bound phages were eluted by adding 100 µL of 100 mM HCl to each well. The elute was neutralized with 10 µL of 1.0 M Tris‐HCl (pH 11.0). E. coli TG1 cells were grown to the log phase (A600 = ≈0.6), and 1 mL of the culture was incubated with 100 µL of the eluted phages for 30 min at 37 °C, with shaking at 200 rpm. Next, 1 µL of M13KO7 helper phages was added, followed by incubation for 45 min at 37 °C, with shaking. Subsequently, the cells were transferred to 25 mL of 2× yeast extract tryptone/carbenicillin/kanamycin medium and incubated overnight at 37 °C with shaking at 200 rpm. The amplified phages were precipitated with 20% PEG‐8000/2.5 M NaCl to be used for the next round of selection.
The naïve T‐Surf libraries in P8 and P3 and the enriched phage pools after four rounds were barcoded for NGS as previously described.^[ [59] ^] Briefly, 5 µL of the phage pool was used as a template for 20 cycles of a 50 µL PCR reaction using […] each of forward and reverse barcoded primers and PrimeSTAR Max DNA Polymerase. The PCR products were purified using Expin Gel SV (GeneAll). The NGS samples were quantified using qPCR, following the qPCR Quantification Protocol Guide (KAPA Library Quantification kits for Illumina Sequencing Platform), and qualified using the TapeStation High Sensitivity D1000 ScreenTape (Agilent Technologies). The indexed libraries were further sequenced by Macrogen (Seoul, Republic of Korea) using the NovaSeq platform (Illumina) with 100 bp paired‐end reads. The reads were demultiplexed by barcodes and filtered for an average Phred quality score of at least 30, followed by trimming the flanking consensus sequences using Cutadapt (version 2.3). Peptide sequence populations were analyzed according to the read counts.

Setting [1] is: P8_MyD88: rank by count after grouping.
[2] abbreviates: P8_MyD88: rank by count before grouping.
Setting [3] is: 4R selection against MyD88, rank after grouping.
Setting [4] is: 4R selection against MyD88, rank before grouping.
Where [5] appears, read: P8_MyD88: rank by NGS read count after grouping.
Setting [6] is: P8_MyD88: rank by NGS read count before grouping.
Where [7] appears, read: P3_MyD88: rank by count after grouping.
[8] abbreviates: P3_MyD88: rank by count before grouping.
Setting [9] is: selection against MyD88, rank by count after grouping.
The mark [10] stands for this setting: selection against MyD88, rank by count before grouping.

T1 sequence (Q99836 148-296): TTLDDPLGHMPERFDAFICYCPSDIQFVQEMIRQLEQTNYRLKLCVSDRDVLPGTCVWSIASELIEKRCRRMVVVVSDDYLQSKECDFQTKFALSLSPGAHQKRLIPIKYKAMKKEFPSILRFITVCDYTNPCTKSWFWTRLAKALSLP

For DSDPGSDLLIKIWAAL, the Population was found to be 0.00694%. The “Rank (after)” value under setting [1] stood at 166. The “Rank (before)” value under setting [2] is 185.

For the sequence DSFFWDRLLYILHVTE, the “P8_MyD88 Rank (after)” value under setting [3] turned out to be 654. In addition, the “P8_MyD88 Rank (before)” value under setting [4] came out at 3075.

Turning to DSFFWGRLLYSLHVTE, the “Rank (after)” value under setting [5] came out at 970. Also, the “Rank (before)” value under setting [6] is 3074.

Consider DSHESEIIKEIVDTIV, for which the “Rank (after)” value under setting [7] was determined as 163. Also, under setting [8], the “Rank (before)” value stood at 967.

For DSLFWDRLLPNLEGPAG, the “P8_MyD88 Rank (after)” value under setting [3] is recorded as 645. In addition, the “P8_MyD88 Rank (before)” value under setting [4] is 3104.

For DSLFWDRLLYSL, the Population amounted to 0.00732%.

On to DSLFWDRLLYSLHVT, for which the “P8_MyD88 Rank (after)” value (selection against MyD88 TIR, rank by count after grouping) is listed as 219. Further, where the note is “selection against MyD88 TIR, rank by count before grouping”, the “P8_MyD88 Rank (before)” value stood at 355.

With DSLFWDRLLYSLHVTD, the Population was found to be 0.00732%.

For DSLFWDRLLYSLQFTE, the “Rank (after)” value under setting [5] is reported as 933. The “Rank (before)” value under setting [6] is listed as 3097.

As for DSLIWDRLLYSIKVTE, the “P8_MyD88 Rank (after)” value under setting [9] amounted to 737. Further, the “P8_MyD88 Rank (before)” value under setting [10] was 3124.

For the sequence DSQDLDWLYERLVSLL, the “P8_MyD88 Rank (after)” value under setting [3] is 621. Besides, the “P8_MyD88 Rank (before)” value under setting [4] was found to be 2497.

Consider DSQSSLLKGEADLVGQ, for which the “P3_MyD88 Rank (after)” value under setting [9] is on record as 736. For the same sequence, the “P3_MyD88 Rank (before)” value under setting [10] worked out at 2071.

DSQVLDWFYERLVSLL: the “Rank (after)” value under setting [5] was found to be 982. In addition, the “Rank (before)” value under setting [6] is reported as 2496.

On to DSVCLDRLLYSLHVTE, for which, under setting [3], the “P8_MyD88 Rank (after)” value is given as 582. In addition, under setting [4], the “P8_MyD88 Rank (before)” value was 3130.

For the sequence DSVFWDLLRYSLHVTE, the “Rank (after)” value under setting [1] is reported as 466. Also, the “Rank (before)” value under setting [2] is recorded as 3127.

Turning to DSWTSAALYEALHALL, the Population stood at 0.00809%. In addition, under setting [1], the “Rank (after)” value is on record as 156. In addition, the “Rank (before)” value under setting [2] was determined as 172.

In the case of DTALTNSGFHTLRDND, the “Rank (after)” value under setting [7] is reported as 450. Moreover, the “Rank (before)” value under setting [8] stood at 2091.

Consider DTILEKVQSIAPELLR, for which, under setting [7], the “Rank (after)” value is given as 401. In addition, the “Rank (before)” value under setting [8] was determined as 2092.

As for DTKLKEGDCVPPELLR, the “P3_MyD88 Rank (after)” value under setting [3] was found to be 664. Besides, under setting [4], the “P3_MyD88 Rank (before)” value is recorded as 2090.

DTKLKKGESIAPALMR: under setting [9], the “P3_MyD88 Rank (after)” value was determined as 704. Also, the “P3_MyD88 Rank (before)” value under setting [10] amounted to 2101.

With DTKLKKGESIAPELVL, under setting [7], the “Rank (after)” value was found to be 185. The “Rank (before)” value under setting [8] stood at 972.

DTKLKKGESIAPERLP: the “Rank (after)” value under setting [7] was found to be 116. Besides, under setting [8], the “Rank (before)” value is 973.

Turning to DTKLKKGRKHCAGTAA, the “Rank (after)” value under setting [7] was 454. For the same sequence, the “Rank (before)” value under setting [8] is on record as 2099.

As for DVLYWALTEAGIRVFR, the Population turned out to be 0.015%. Moreover, under setting [1], the “Rank (after)” value is listed as 119. Moreover, the “Rank (before)” value under setting [2] was 128.

Take DVLYWALTEAGLRGFR: for the setting “selection against MyD88, rank after grouping”, the “P8_MyD88 Rank (after)” value stood at 578. The “P8_MyD88 Rank (before)” value (selection against MyD88, rank before grouping) is 2557.

On to DVLYYALIDAGIRVFR, for which the “Rank (after)” value under setting [1] stood at 182. In addition, under setting [2], the “Rank (before)” value is reported as 216.

On to DVVCDYLLPNLEGPAG, for which the “P8_MyD88 Rank (after)” value under setting [3] stood at 606. For the same sequence, the “P8_MyD88 Rank (before)” value under setting [4] is listed as 2555.

Turning to DWAWDYLLPNLEGSAG, the “Rank (after)” value under setting [1] is listed as 432. The “Rank (before)” value under setting [2] stood at 2483.

With DWEWDYRLPNLEGPAC, the “P8_MyD88 Rank (after)” value under setting [9] was found to be 745. Also, under setting [10], the “P8_MyD88 Rank (before)” value is 2487.

DWEWDYRLPNLEGPPG: under setting [5], the “Rank (after)” value is 891. Further, the “Rank (before)” value under setting [6] is 2486.

Turning to DWEWEYLRPNLEGTAG, under setting [9], the “P8_MyD88 Rank (after)” value was 768. Also, under setting [10], the “P8_MyD88 Rank (before)” value is on record as 2488.

As for DWGWDYLLPQLEGSAG, the “Rank (after)” value under setting [5] turned out to be 990. Further, the “Rank (before)” value under setting [6] is given as 2482.

As for DWGWGYLLPNLEGPAG, the “P8_MyD88 Rank (after)” value under setting [9] turned out to be 707. Moreover, the “P8_MyD88 Rank (before)” value under setting [10] came to 2481.

Sequence DWLPGRTLFENLWASV displayed a Population of 0.00886%. The “Rank (after)” value under setting [1] is recorded as 152. Also, the “Rank (before)” value under setting [2] stood at 164.
